Assay results taken from patent publication US5126356A, “Piperidine compounds” (Adir et Compagnie, priority 1989, dated 1992).
Where a name gives a salt, the structure may show the parent alone.

How the values were obtained:
Beta adrenergic β = experiment: Binding to neurotransmitter receptors: beta adrenergic ([3H] DHA); conditions: read-out: K0.5
cardiac cells [1] = experiment: Oxidative necrosis of cardiac cells induced by hypoxanthine/xanthine oxidase (α-HBDH release); type: cell-based, rat; conditions: for activity at 10 µM / activity at 1 µM / activity at 0.1 µM / inhibition at 1 µM: Rattus norvegicus, Cardiomyocyte, 4 h; for activity at 10 µM / activity at 1 µM / activity at 0.1 µM / necrosis index: XO + HX, control XO + HX = 100, mean ±SD; for activity at 10 µM / activity at 1 µM / activity at 0.1 µM: read-out: necrosis index; for inhibition at 1 µM: from 10^-6 M, read-out: reduction of oxidative necrosis of the cardiomyocytes; for necrosis index: 240 min
Method: Cardiac cells of newly born rats are used between the 5th and 7th day following culturing. Oxidative necrosis is induced by the enzymatic production system of hypoxanthine free radicals (HX, 1 mM) and xanthine oxidase (XO, 10 mU/ml). The necrosis is evaluated 4 hours after the addition of XO/HX by measuring by spectrophotometry the cytosolic α-hydroxybutyrate dehydrogenase (α-HBDH) activity released into the supernatant liquor. Two reference molecules (Probucol, vitamin E) and two molecules representative of the present invention (corresponding to Examples 13 and 19) were tested. The cells are treated with the molecules 16 hours and 1 hour before the start of the experiment after renewal of the medium. At the start of the experiment, the treatment is repeated one last time.
The necrosis index 100 corresponds to the release of 46.7±5.3% of the cytosolic content of α-HBDH into the supernatant liquor in 4 hours.
The results are expressed as the mean ±SD (2<n≤4, 3 to 4 repetitions per experiment).

human LDL's = experiment: Oxidative modification of human LDL's by copper sulphate (MDA production); type: biochemical; conditions: for IC50: read-out: IC50 (reduction of MDA production by 50%), Cu2+ (copper sulphate 5×10^-6 M), 24 hours
Method: Human LDL's are incubated for 24 hours in the presence of copper sulphate (5×10^-6 M) and in the absence or in the presence of the test compounds (10^-7 M to 10^-4 M).
After incubation, the peroxidation of the LDL's is evaluated by agar gel electrophoresis and by the formation of one of the products of lipid peroxidation: malondialdehyde (MDA) (Parthasarathy S., Young S. G., Witztum J. L., Pittman R. C. and Steinberg D.; J. Clin. Invest. 77, 641-644, 1986).

type L calcium channels [2] = experiment: Binding: displacement of [3H] D888 at the Ca2+ channel; conditions: read-out: K0.5 (50% of specifically fixed radioactivity displaced)
type L Ca^2+ channel = target: T1, type L Ca^2+ channel (Rattus norvegicus, UniProt P22002); experiment: Inhibition of 45Ca2+ influx through the Ca2+ channel in A7 r5 cells; type: cell-based; conditions: 45Ca2+ influx, A7 r5 cells; read-out: K0.5 (50% of 45Ca2+ influx inhibited)
T1 construct: cell lines from the aorta of newly born rats; host or cells: A7 r5

cardiac cells [3] = experiment: Protection of cardiac cells from necrosis induced by intracellular acidosis (αHBDH release); type: cell-based, rat; conditions: Rattus norvegicus, Cardiomyocyte
Method: a) Cardiac cells: the cardiac cells are prepared from the hearts of newly born (3 days) Wistar rats in accordance with the technique of RENAUD JF., MEAUX JP., ROMEY G., SCHMID A., LAZDUNSKI M., Activation of the voltage-dependent Ca^2+ channels in rat heart cells by dihydropyridine derivative--Biochem. Biophys. Res. Commun., 125, 405-412 (1984).
The cardiomyocytes are isolated from the ventricles by enzymatic dissociation and cultured at 185,000 cells/cm^2. The cells are kept at 37° C. under an air/CO2 atmosphere (95 V/5 V) saturated with water. The cardiomyocytes are used between the 3rd and 8th day following culturing.
Intracellular acidosis is induced in accordance with the conditions published by RENAUD JF., Internal pH Na^+ and Ca^2+ regulation by trimetazidine during cardiac cell acidosis. Cardiovasc. Drugs and Ther., 1, 667-686 (1988) in the presence or absence of the products to be tested. Cellular necrosis is evaluated by measuring by spectrophotometry using the Boerhinger 124800 kit the kinetics of the release of a cytosolic enzyme α-hydroxybutyrate dehydrogenase (αHBDH) into the extracellular medium.
The signal measured corresponds to the amplitude of the necrosis induced by the acidosis. The values are the means ±SD. The number of experiments is indicated in parentheses.

type L calcium channels [4] = target: T2, type L calcium channels (Oryctolagus cuniculus, UniProt P07293); experiment: Binding: displacement of [3H] PN 200-110 at the Ca2+ channel
T2 construct: microsomal fractions enriched with type L calcium channels; from tissue; host or cells: microsomal fractions

Alpha adrenergic α2 = experiment: Binding to neurotransmitter receptors: alpha2 adrenergic ([3H] Rauwolscine); conditions: α2, [3H] Rauwolscine; read-out: K0.5
[5] = read-out: amplitude of the necrosis induced by the acidosis

T2 sequence (P07293 whole entry): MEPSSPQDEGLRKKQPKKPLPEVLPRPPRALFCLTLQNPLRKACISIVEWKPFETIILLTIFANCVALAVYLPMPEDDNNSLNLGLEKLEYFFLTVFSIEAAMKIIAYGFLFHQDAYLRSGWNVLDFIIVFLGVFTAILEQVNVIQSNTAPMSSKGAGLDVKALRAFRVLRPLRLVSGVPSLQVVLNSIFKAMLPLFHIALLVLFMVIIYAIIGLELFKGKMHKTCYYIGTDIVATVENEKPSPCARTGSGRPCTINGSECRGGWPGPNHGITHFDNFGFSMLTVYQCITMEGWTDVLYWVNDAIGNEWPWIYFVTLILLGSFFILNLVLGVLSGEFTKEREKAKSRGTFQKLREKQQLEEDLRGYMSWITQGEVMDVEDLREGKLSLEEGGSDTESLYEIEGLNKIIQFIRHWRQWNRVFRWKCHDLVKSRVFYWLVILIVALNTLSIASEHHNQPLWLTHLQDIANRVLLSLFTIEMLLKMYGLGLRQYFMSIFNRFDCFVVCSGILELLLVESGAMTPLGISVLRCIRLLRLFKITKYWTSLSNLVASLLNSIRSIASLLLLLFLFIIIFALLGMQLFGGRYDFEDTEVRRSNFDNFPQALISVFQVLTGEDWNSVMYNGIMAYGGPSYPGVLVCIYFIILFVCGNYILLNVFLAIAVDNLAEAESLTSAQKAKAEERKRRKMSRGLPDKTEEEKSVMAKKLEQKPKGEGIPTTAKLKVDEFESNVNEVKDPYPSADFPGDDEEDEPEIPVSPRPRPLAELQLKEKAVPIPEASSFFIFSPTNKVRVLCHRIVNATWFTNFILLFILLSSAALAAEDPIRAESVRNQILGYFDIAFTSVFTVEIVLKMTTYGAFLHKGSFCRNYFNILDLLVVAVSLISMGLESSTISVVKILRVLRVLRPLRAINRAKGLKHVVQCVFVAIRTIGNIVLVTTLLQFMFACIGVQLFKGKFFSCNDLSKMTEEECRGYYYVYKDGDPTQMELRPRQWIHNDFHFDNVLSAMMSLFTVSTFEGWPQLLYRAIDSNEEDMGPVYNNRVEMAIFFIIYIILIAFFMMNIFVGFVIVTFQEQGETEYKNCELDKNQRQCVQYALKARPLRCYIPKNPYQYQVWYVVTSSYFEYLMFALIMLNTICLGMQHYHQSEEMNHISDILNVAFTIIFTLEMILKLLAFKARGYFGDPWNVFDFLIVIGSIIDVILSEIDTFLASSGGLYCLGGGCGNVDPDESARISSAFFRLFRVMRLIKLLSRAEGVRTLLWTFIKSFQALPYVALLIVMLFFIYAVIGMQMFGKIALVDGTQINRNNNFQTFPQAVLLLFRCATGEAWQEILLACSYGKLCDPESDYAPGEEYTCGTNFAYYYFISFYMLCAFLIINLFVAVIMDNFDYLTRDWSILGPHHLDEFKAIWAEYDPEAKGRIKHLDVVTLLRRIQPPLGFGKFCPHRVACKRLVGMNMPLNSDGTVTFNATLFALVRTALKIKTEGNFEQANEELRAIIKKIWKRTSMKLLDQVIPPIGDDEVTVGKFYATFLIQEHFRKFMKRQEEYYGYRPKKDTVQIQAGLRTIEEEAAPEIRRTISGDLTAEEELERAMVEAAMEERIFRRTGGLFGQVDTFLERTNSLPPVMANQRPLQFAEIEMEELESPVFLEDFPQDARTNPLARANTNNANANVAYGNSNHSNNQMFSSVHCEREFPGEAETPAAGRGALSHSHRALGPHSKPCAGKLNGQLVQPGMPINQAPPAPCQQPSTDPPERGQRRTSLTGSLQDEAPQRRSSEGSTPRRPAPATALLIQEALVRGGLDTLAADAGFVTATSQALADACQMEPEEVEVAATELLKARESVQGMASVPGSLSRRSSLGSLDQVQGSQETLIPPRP
T2 sequence (P13806 27-960 partner limits assumed): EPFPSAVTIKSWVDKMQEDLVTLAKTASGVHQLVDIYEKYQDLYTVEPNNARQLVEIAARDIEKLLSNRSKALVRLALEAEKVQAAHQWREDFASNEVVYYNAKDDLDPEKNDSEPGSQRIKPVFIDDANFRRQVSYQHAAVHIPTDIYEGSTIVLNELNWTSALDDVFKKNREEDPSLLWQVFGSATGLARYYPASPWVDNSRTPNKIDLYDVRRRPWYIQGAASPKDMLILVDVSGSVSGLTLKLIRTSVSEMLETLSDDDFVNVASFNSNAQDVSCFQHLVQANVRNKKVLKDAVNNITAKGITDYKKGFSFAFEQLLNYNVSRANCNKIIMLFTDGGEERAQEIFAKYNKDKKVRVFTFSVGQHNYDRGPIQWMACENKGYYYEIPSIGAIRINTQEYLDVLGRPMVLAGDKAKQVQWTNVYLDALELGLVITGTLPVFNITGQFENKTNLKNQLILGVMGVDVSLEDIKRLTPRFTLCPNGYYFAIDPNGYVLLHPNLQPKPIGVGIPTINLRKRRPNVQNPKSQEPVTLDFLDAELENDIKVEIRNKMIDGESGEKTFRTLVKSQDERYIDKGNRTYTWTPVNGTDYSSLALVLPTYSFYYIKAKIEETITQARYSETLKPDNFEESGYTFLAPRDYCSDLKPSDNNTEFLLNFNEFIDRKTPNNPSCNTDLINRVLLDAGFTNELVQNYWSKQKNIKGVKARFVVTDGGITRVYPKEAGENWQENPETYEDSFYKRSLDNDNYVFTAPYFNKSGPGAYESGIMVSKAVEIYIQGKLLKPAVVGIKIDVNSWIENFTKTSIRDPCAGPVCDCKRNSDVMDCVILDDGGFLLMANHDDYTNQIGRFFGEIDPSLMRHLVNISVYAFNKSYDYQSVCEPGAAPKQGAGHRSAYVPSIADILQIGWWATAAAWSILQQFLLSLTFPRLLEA
T2 sequence (P13806 961-1106 partner limits assumed): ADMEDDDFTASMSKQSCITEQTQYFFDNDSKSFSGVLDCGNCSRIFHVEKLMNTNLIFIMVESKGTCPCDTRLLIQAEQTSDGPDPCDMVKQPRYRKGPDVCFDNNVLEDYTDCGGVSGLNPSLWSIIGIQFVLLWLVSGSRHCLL
T2 sequence (P19517 whole entry partner): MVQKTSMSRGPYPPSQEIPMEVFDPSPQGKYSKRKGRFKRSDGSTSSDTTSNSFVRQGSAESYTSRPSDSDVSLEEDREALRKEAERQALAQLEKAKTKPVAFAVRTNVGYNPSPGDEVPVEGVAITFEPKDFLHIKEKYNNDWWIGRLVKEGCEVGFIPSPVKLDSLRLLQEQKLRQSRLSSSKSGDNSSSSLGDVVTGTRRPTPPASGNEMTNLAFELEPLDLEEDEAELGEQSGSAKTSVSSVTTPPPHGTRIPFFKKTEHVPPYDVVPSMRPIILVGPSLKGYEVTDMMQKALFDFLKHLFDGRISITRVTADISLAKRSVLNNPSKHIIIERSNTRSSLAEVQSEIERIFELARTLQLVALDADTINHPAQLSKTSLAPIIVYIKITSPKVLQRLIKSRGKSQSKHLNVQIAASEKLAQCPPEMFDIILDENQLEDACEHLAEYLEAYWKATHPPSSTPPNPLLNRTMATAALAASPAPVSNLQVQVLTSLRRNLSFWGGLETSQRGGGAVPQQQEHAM
T2 sequence (P19518 whole entry partner): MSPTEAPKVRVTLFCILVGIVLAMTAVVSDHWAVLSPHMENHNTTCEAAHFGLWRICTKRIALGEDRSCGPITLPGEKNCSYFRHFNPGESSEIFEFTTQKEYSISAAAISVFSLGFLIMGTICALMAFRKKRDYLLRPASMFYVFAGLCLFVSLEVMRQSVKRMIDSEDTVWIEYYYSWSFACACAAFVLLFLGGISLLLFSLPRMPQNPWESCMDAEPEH

Molecule `C=CCc1ccccc1OCC(O)CNC(C)C` (centres unmarked) [Alprenolol] has an IC50 (Beta adrenergic β) of 0.0021 µM.
With `COc1ccc(CSC2CCN(Cc3cc(C(C)(C)C)c(O)c(C(C)(C)C)c3)CC2)c(OC)c1OC` [Example 13, 4-(2,3,4-trimethoxybenzylthio)-1-(3,5-di-tert.-butyl-4-hydroxybenzyl)piperidine] the “protection of cardiac cells with respect to oxidative necrosis (in words)” value (cardiac cells [1]) was “markedly superior to the anti-oxidant reference products”, the activity at 10 µM (cardiac cells [1]; 10^-5 M) was 16.1 ± 5.6% and the activity at 1 µM (cardiac cells [1]; 10^-6 M) was 52.4 ± 18.2%. The activity at 0.1 µM (cardiac cells [1]; 10^-7 M) was 75.7 ± 19.7%, the inhibition at 1 µM (cardiac cells [1]) was no less than 50% and the IC50 (human LDL's) was 3 µM.
For `COc1ccc(CSC2CCN(CCCOc3cc(C(C)(C)C)c(O)c(C(C)(C)C)c3)CC2)c(OC)c1OC` [Example 14, 4-(2,3,4-trimethoxybenzylthio)-1-[3-(3,5-di-tert.-butyl-4-hydroxyphenoxy)propyl]piperidine], the IC50 (human LDL's) was 1 µM.
Molecule `COc1ccc(CSC2CCN(CCCc3cc(C(C)(C)C)c(O)c(C(C)(C)C)c3)CC2)c(OC)c1OC` [Example 15, 4-(2,3,4-trimethoxybenzylthio)-1-[3-(3,5-di-tert.-butyl-4-hydroxyphenyl)propyl]piperidine] has an IC50 (human LDL's) of 3 µM.
With `COc1ccc(CSC2CCN(CC(O)CSc3cc(C(C)(C)C)c(O)c(C(C)(C)C)c3)CC2)c(OC)c1OC` (centres unmarked) [Example 16, 4-(2,3,4-trimethoxybenzylthio)-1-[3-(3,5-di-tert.-butyl-4-hydroxyphenylthio)-2-hydroxypropyl]piperidine] the IC50 (human LDL's) was 3 µM.
`COc1ccc(CSC2CCN(CC(O)COc3cc(C(C)(C)C)c(O)c(C(C)(C)C)c3)CC2)c(OC)c1OC` (centres unmarked) [Example 17, 4-(2,3,4-trimethoxybenzylthio)-1-[3-(3,5-di-tert.-butyl-4-hydroxyphenoxy)-2-hydroxypropyl]piperidine] showed an IC50 (human LDL's) of 2 µM.
Molecule `COc1ccc(CSC2CCN(CCCSc3cc(C(C)(C)C)c(O)c(C(C)(C)C)c3)CC2)c(OC)c1OC` [Example 18, 4-(2,3,4-trimethoxybenzylthio)-1-[3-(3,5-di-tert.butyl-4-hydroxyphenylthio)propyl]piperidine] has an IC50 (human LDL's) of 2 µM.
With `COc1ccc(CSC2CCN(CCCOc3cc(C)c(O)c(C)c3C)CC2)c(OC)c1OC` [Example 19, 4-(2,3,4-trimethoxybenzylthio)-1-[3-(2,3,5-trimethyl-4-hydroxyphenoxy)propyl]piperidine] the “protection of cardiac cells with respect to oxidative necrosis (in words)” value (cardiac cells [1]) was “markedly superior to the anti-oxidant reference products”, the activity at 10 µM (cardiac cells [1]; 10^-5 M) was 7.9 ± 4.1% and the activity at 1 µM (cardiac cells [1]; 10^-6 M) was 38.4 ± 13.7%. The activity at 0.1 µM (cardiac cells [1]; 10^-7 M) was 86 ± 11.5%, the inhibition at 1 µM (cardiac cells [1]) was no less than 50% and the “protection of human LDL's with respect to oxidative modification (in words)” value (human LDL's; copper sulphate) was “greater ability”. The IC50 (human LDL's) was 0.3 µM.
Work on `COc1ccc(CSC2CCN(CCCCCSc3cc(C(C)(C)C)c(O)c(C(C)(C)C)c3)CC2)c(OC)c1OC` [Example 20, 4-(2,3,4-trimethoxybenzylthio)-1-[5-(3,5-di-tert.butyl-4-hydroxyphenylthio)pentyl]piperidine] yielded an IC50 (human LDL's) of 1 µM.
Work on `COc1ccc(CSC2CCN(CCCCCOc3cc(C(C)(C)C)c(O)c(C(C)(C)C)c3)CC2)c(OC)c1OC` [Example 21, 4-(2,3,4-trimethoxybenzylthio)-1-[5-(3,5-di-tert.-butyl-4-hydroxyphenoxy)pentyl]piperidine] yielded an IC50 (human LDL's) of 0.8 µM.
For `COc1cccc(CCN(C)CCCC(C#N)(c2ccc(OC)c(OC)c2)C(C)C)c1` (centres unmarked) [Example D888, reference compound], the IC50 (type L calcium channels [2]) was 0.0025 µM and the IC50 (type L Ca^2+ channel) was 0.023 µM.
In the case of `CC(C)(Sc1cc(C(C)(C)C)c(O)c(C(C)(C)C)c1)Sc1cc(C(C)(C)C)c(O)c(C(C)(C)C)c1` [Probucol, reference compound], the activity at 10 µM (cardiac cells [1]; 10^-5 M) is reported as 68 ± 0.9%, the activity at 1 µM (cardiac cells [1]; 10^-6 M) is reported as 95 ± 1.7% and the IC50 (human LDL's) is reported as 3 µM.
Molecule `COc1ccc(CN2CCNCC2)c(OC)c1OC` [Trimetazidine, 2 HCl, trimetazidine dihydrochloride, reference compound] has an activity at 20 µM (cardiac cells [3]; [5]) of 94.6%, an activity at 100 µM (cardiac cells [3]; [5]) of 75.8% and an activity at 500 µM (cardiac cells [3]; [5]) of 58.3%. For the same molecule, the inhibition at 500 µM (cardiac cells [3]; read-out: protection of cell population subjected to intracellular acidosis) was 42%, the IC50 (type L calcium channels [4]) was greater than 100 µM and the IC50 (type L calcium channels [2]) was greater than 100 µM. The IC50 (Beta adrenergic β) was greater than 100 µM.
`COC(=O)[C@@H]1[C@H]2C[C@H]3c4[nH]c5ccccc5c4CCN3C[C@@H]2CC[C@@H]1O` [Yohimbine, reference compound] showed an IC50 (Alpha adrenergic α2) of 0.031 µM.
Work on vitamin E [reference compound] yielded a necrosis index (cardiac cells [1]; 10^-5 M, 10 µM) of 54.9 ± 11.3, a necrosis index (cardiac cells [1]; 10^-6 M, 1 µM) of 87.6 ± 5.7 and a necrosis index (cardiac cells [1]; 10^-7 M, 0.1 µM) of 97.1 ± 2.6. It also gave an IC50 (human LDL's) greater than 100 µM.
